In article PMC7602263, “Exploring the Use of Helicogenic Amino Acids for Optimising Single Chain Relaxin-3 Peptide Agonists” (Biomedicines, 2020):
Where a SMILES comes first, the peptide text is derived from it. Bridges are numbered along the chain shown (N, C = ends). Where no end group is shown, it is not given here. [ ]: non-standard residue; d: D form. S5 = C=CCCC[C@](C)(N)C(=O)O

What was measured:
[1] = target: T1, RXFP3 (Homo sapiens, UniProt Q9NSD7); test: Competition binding assay with Eu-labelled R3 B1-22R on CHO-K1 cells stably expressing RXFP3; conditions: SEM; read-out: pKi [logM] (converted)
T1 construct: expressed in transfected cells; host or cells: CHO-K1
T1 sequence (Q9NSD7 1-469): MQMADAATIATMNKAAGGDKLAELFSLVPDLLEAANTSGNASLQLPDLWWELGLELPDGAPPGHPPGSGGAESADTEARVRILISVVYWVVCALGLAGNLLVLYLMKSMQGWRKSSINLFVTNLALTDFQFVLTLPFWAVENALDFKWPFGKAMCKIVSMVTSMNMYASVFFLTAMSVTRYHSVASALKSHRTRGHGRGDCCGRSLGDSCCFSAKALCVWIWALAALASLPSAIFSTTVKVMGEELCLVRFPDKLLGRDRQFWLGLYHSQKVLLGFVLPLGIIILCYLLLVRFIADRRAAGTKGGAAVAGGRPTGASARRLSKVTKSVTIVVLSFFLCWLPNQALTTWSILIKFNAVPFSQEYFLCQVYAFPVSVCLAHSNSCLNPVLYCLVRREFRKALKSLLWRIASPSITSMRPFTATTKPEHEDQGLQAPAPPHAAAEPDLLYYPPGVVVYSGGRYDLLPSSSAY
Experimental: Determination of binding affinity in this study was carried out as previously described. Briefly, CHO-K1 cells stably expressing RXFP3 [38] were treated with 5 nM Eu-labelled R3 B1-22R with increasing concentrations of novel analogues. Fluorescence measurement were recorded with 340 nm excitation and 614 nm emission wavelengths. Assays were conducted in triplicates and independently repeated at least three times. […] Statistical analyses were conducted using 1-way ANOVA with uncorrected Fisher’s least square difference in GraphPad Prism 8.0.
(§1) To determine their binding affinity, the ability of increasing concentration of analogues to compete with europium labelled R3 B1-22R were measured using CHO cells stably expressing RXFP3 [37]. Their potency at RXFP3 was measured by inhibition of cAMP accumulation induced by forskolin, as RXFP3 couples to an inhibitory G-protein.

[2] = target: T1, RXFP3; test: cAMP activity assay: inhibition of forskolin-induced cAMP accumulation in CHO-K1 cells stably expressing RXFP3; format: cell-based; conditions: for EC50: CHO-K1 cells stably expressing RXFP3, inhibition of cAMP accumulation stimulated by 5 μM forskolin, mean ± SEM, triplicates, three independent experiments; for maximum cAMP accumulation inhibition: at the highest concentration tested, CHO-K1 cells expressing RXFP3, forskolin-stimulated (Figure 3)
Experimental: CHO-KI cells stably expressing RXFP3 were used to study the ability of the novel analogues to inhibit forskolin-induced cAMP accumulation. Assays were conducted as previously described. Briefly, 5 μM forskolin was used to stimulate the cells and increasing concentrations of the novel analogues were added to measure the dose-dependent reduction in the cAMP response via activation of the Gi/o-coupled RXFP3. Each analogue was tested in triplicates and each experiment was independently repeated three times. Data are presented as mean ± SEM and were analysed using GraphPad Prism 8.0. Statistical analyses were conducted using 1-way ANOVA and uncorrected Fisher’s least square difference.
as §1

Row | Compound | Ki [1] [nM] | EC50 ([2]; SEM) [nM] | EC50 [2] [nM] | maximum cAMP accumulation inhibition [2]
1 | CC[C@H](C)[C@@H]1NC(=O)[C@H](Cc2ccccc2)NC(=O)[C@@](C)(NC(=O)[C@H](CCCNC(=N)N)NC(=O)CNC(=O)[C@H](CO)NC(C)=O)CCCC=CCCC[C@@](C)(C(=O)N[C@H](C(=O)N[C@H](C(=O)N[C@@H](Cc2ccccc2)C(=O)N[C@H](C(=O)N[C@@H](CO)C(=O)NCC(=O)NCC(=O)N[C@@H](CO)C(=O)N[C@@H](CCCNC(=N)N)C(=O)N[C@@H](Cc2c[nH]c3ccccc23)C(=O)O)[C@@H](C)O)[C@@H](C)CC)C(C)C)NC(=O)[C@H](CCCNC(=N)N)NC1=O [Ac-R3B10-27 [13/17 HC], reference compound] (Ac-SGR[S5]FIR[S5]VIFTSGGSRW-OH; staple 4-8) | 41.7 | – | – | –
2 | CC[C@H](C)[C@H](NC(=O)[C@H](Cc1ccccc1)NC(=O)C(C)(C)NC(=O)[C@H](CCCNC(=N)N)NC(=O)CNC(=O)[C@H](CO)NC(C)=O)C(=O)N[C@@H](CCCNC(=N)N)C(=O)NC(C)(C)C(=O)N[C@H](C(=O)N[C@H](C(=O)N[C@@H](Cc1ccccc1)C(=O)N[C@H](C(=O)N[C@@H](CO)C(=O)NCC(=O)NCC(=O)N[C@@H](CO)C(=O)N[C@@H](CCCNC(=N)N)C(=O)N[C@@H](Cc1c[nH]c2ccccc12)C(=O)O)[C@@H](C)O)[C@@H](C)CC)C(C)C [Analogue 1] (HELM PEPTIDE1{[ac].S.G.R.[Aib].F.I.R.[Aib].V.I.F.T.S.G.G.S.R.W}$$$$V2.0) | 562 | 67.6 | – | –
3 | CC[C@H](C)[C@H](NC(=O)[C@@H](NC(=O)C(C)(C)NC(=O)[C@H](CCCNC(=N)N)NC(=O)[C@@H](NC(=O)C(C)(C)NC(=O)C(C)(C)NC(=O)[C@H](CCCNC(=N)N)NC(=O)CNC(=O)[C@H](CO)NC(C)=O)[C@@H](C)CC)C(C)C)C(=O)N[C@@H](Cc1ccccc1)C(=O)N[C@H](C(=O)N[C@@H](CO)C(=O)NCC(=O)NCC(=O)N[C@@H](CO)C(=O)N[C@@H](CCCNC(=N)N)C(=O)N[C@@H](Cc1c[nH]c2ccccc12)C(=O)O)[C@@H](C)O [Analogue 2] (HELM PEPTIDE1{[ac].S.G.R.[Aib].[Aib].I.R.[Aib].V.I.F.T.S.G.G.S.R.W}$$$$V2.0) | 1480 | 550 | – | –
4 | CC[C@H](C)[C@H](NC(=O)[C@H](Cc1ccccc1)NC(=O)C(C)(C)NC(=O)[C@H](CCCNC(=N)N)NC(=O)CNC(=O)[C@@H](N)CO)C(=O)N[C@@H](CCCNC(=N)N)C(=O)NC(C)(C)C(=O)NC(C)(C)C(=O)N[C@H](C(=O)N[C@@H](Cc1ccccc1)C(=O)N[C@H](C(=O)N[C@@H](CO)C(=O)NCC(=O)NCC(=O)N[C@@H](CO)C(=O)N[C@@H](CCCNC(=N)N)C(=O)N[C@@H](Cc1c[nH]c2ccccc12)C(=O)O)[C@@H](C)O)[C@@H](C)CC [Analogue 3] (HELM PEPTIDE1{S.G.R.[Aib].F.I.R.[Aib].[Aib].I.F.T.S.G.G.S.R.W}$$$$V2.0) | – | 91.2 | – | –
5 | CC[C@H](C)[C@H](NC(=O)[C@H](Cc1ccccc1)NC(=O)C(C)(C)NC(=O)[C@H](CCCNC(=N)N)NC(=O)CNC(=O)[C@H](CO)NC(C)=O)C(=O)N[C@@H](CCCNC(=N)N)C(=O)NC(C)(C)C(=O)NC(C)(C)C(=O)N[C@H](C(=O)N[C@@H](Cc1ccccc1)C(=O)N[C@H](C(=O)N[C@@H](CO)C(=O)NCC(=O)NCC(=O)N[C@@H](CO)C(=O)N[C@@H](CCCNC(=N)N)C(=O)N[C@@H](Cc1c[nH]c2ccccc12)C(=O)O)[C@@H](C)O)[C@@H](C)CC [Analogue 4] (HELM PEPTIDE1{[ac].S.G.R.[Aib].F.I.R.[Aib].[Aib].I.F.T.S.G.G.S.R.W}$$$$V2.0) | 759 | 33.1 | – | –
6 | CC[C@H](C)[C@H](NC(=O)[C@H](Cc1ccccc1)NC(=O)C(C)(C)NC(=O)[C@H](CCCNC(=N)N)NC(=O)CNC(=O)[C@@H](N)CO)C(=O)N[C@@H](CCCNC(=N)N)C(=O)NC(C)(C)C(=O)N[C@H](C(=O)N[C@H](C(=O)N[C@@H](Cc1ccccc1)C(=O)NC(C)(C)C(=O)N[C@@H](CO)C(=O)NCC(=O)NCC(=O)N[C@@H](CO)C(=O)N[C@@H](CCCNC(=N)N)C(=O)N[C@@H](Cc1c[nH]c2ccccc12)C(=O)O)[C@@H](C)CC)C(C)C [Analogue 5] (HELM PEPTIDE1{S.G.R.[Aib].F.I.R.[Aib].V.I.F.[Aib].S.G.G.S.R.W}$$$$V2.0) | – | – | 1020 | –
7 | CC[C@H](C)[C@H](NC(=O)[C@H](Cc1ccccc1)NC(=O)C(C)(C)NC(=O)[C@H](CCCNC(=N)N)NC(=O)CNC(=O)[C@H](CO)NC(C)=O)C(=O)N[C@@H](CCCNC(=N)N)C(=O)NC(C)(C)C(=O)N[C@H](C(=O)N[C@H](C(=O)N[C@@H](Cc1ccccc1)C(=O)NC(C)(C)C(=O)N[C@@H](CO)C(=O)NCC(=O)NCC(=O)N[C@@H](CO)C(=O)N[C@@H](CCCNC(=N)N)C(=O)N[C@@H](Cc1c[nH]c2ccccc12)C(=O)O)[C@@H](C)CC)C(C)C [Analogue 6] (HELM PEPTIDE1{[ac].S.G.R.[Aib].F.I.R.[Aib].V.I.F.[Aib].S.G.G.S.R.W}$$$$V2.0) | 1700 | 1860 | – | –
8 | CC[C@H](C)[C@H](NC(=O)[C@H](Cc1ccccc1)NC(=O)C(C)(C)NC(=O)[C@H](CCCNC(=N)N)NC(=O)CNC(=O)[C@@H](N)CO)C(=O)N[C@@H](CCCNC(=N)N)C(=O)NC(C)(C)C(=O)N[C@H](C(=O)N[C@H](C(=O)N[C@@H](Cc1ccccc1)C(=O)N[C@H](C(=O)NC(C)(C)C(=O)NCC(=O)NCC(=O)N[C@@H](CO)C(=O)N[C@@H](CCCNC(=N)N)C(=O)N[C@@H](Cc1c[nH]c2ccccc12)C(=O)O)[C@@H](C)O)[C@@H](C)CC)C(C)C [Analogue 7] (HELM PEPTIDE1{S.G.R.[Aib].F.I.R.[Aib].V.I.F.T.[Aib].G.G.S.R.W}$$$$V2.0) | 1120 | – | > 10000 | ~ 50%
9 | CC[C@H](C)[C@H](NC(=O)[C@H](Cc1ccccc1)NC(=O)C(C)(C)NC(=O)[C@H](CCCNC(=N)N)NC(=O)CNC(=O)[C@H](CO)NC(C)=O)C(=O)N[C@@H](CCCNC(=N)N)C(=O)NC(C)(C)C(=O)N[C@H](C(=O)N[C@H](C(=O)N[C@@H](Cc1ccccc1)C(=O)N[C@H](C(=O)NC(C)(C)C(=O)NCC(=O)NCC(=O)N[C@@H](CO)C(=O)N[C@@H](CCCNC(=N)N)C(=O)N[C@@H](Cc1c[nH]c2ccccc12)C(=O)O)[C@@H](C)O)[C@@H](C)CC)C(C)C [Analogue 8] (HELM PEPTIDE1{[ac].S.G.R.[Aib].F.I.R.[Aib].V.I.F.T.[Aib].G.G.S.R.W}$$$$V2.0) | 955 | – | > 10000 | ~ 50%
10 | CC[C@H](C)[C@H](NC(=O)[C@H](Cc1ccccc1)NC(=O)C(C)(C)NC(=O)[C@H](CCCNC(=N)N)NC(=O)CNC(=O)[C@@H](N)CO)C(=O)N[C@@H](CCCNC(=N)N)C(=O)NC(C)(C)C(=O)NC(C)(C)C(=O)N[C@H](C(=O)N[C@@H](Cc1ccccc1)C(=O)NC(C)(C)C(=O)N[C@@H](CO)C(=O)NCC(=O)NCC(=O)N[C@@H](CO)C(=O)N[C@@H](CCCNC(=N)N)C(=O)N[C@@H](Cc1c[nH]c2ccccc12)C(=O)O)[C@@H](C)CC [Analogue 9] (HELM PEPTIDE1{S.G.R.[Aib].F.I.R.[Aib].[Aib].I.F.[Aib].S.G.G.S.R.W}$$$$V2.0) | 2000 | 1780 | – | –
11 | RAAPYGVRLSGREFIRAVIFTSGGSRW [H3 B-chain, reference compound] | 1230 | – | – | –
